According to patent US10052359B2, “Composition for enhancing memory and learning function and/or cognitive function” (KIRIN KABUSHIKI KAISHA, priority 2014, dated 2018):
“Also recorded” adds a separate entry of the source.

Each compound was assayed on scopolamine model of poor memory (assay: Y-maze test (spontaneous alternation behavior) in mice given scopolamine). Conditions: 1 μmol/kg to mice; FIG. 9A, 9B.
Type: in vivo
Experimental: FIG. 1A illustrates a summary of methods of evaluating the memory and learning function and the cognitive function. To 6-week-old male CD-1 mice, 1 mg/kg of the peptide extract or 0.1-3 μmol/kg of a synthetic peptide is orally administered forcibly into stomach and 40 minutes later 0.80 mg/kg of scopolamine hydrochloride was administered intraperitoneally to cause memory impairment. 20 minutes after the intraperitoneal administration of scopolamine, the Y-maze test was conducted to evaluate the spontaneous alternation behavior.
Mice originally have a habit of selecting a route different from the route selected immediately before. Therefore a mouse placed in a Y-maze having 3 arms equivalent in width, length, and the like normally enters the arm different from the arm that the mouse entered immediately before. The Y-maze test is a test to evaluate the short-term memory using the habit of mice.
In the Y-maze test, a Y-maze was used as an experimental apparatus having 3 arms each connected at an angle of 120 degrees and each having a length of 25 cm, a wall high of 20 cm, and a floor width of 5 cm.
Mice were placed in the tip of one of the aims in the Y-maze and the orders of the arms that the mice entered when the mice were allowed to search freely for 8 minutes were recorded. The spontaneous alternation behavior is defined as the behavior in which a mouse selects and enters the different arm three times consecutively. […] 10 mice per group were used for the experiment and the average and the standard error were determined. [Examination of Enzymatic Agent]
With PVEP (listed as Bos taurus) the “enhancing effect on the memory and learning function” value was “had the enhancing effect on the memory and learning function at the similar level to that of the original amino acid sequence KEMPFPKYPVEP”.

Same assay, conditions: synthetic peptide 0.1-3 μmol/kg orally; scopolamine 0.80 mg/kg i.p.
For `N[C@@H](Cc1c[nH]c2ccccc12)C(=O)O` [W, tryptophan, reference compound], the “enhancing effect on the memory and learning function and the cognitive function (spontaneous alternation behavior rate)” value was “had no effects”. “AVPYP (listed as Bos taurus) [casein-derived peptide, tested as synthetic peptide]” was tested, and the “enhancing effect on the memory and learning function and the cognitive function (spontaneous alternation behavior rate)” value was “enhancement activity on the memory and learning function and the cognitive function”. For “GTWY (listed as Bos taurus) [whey-derived peptide, tested as synthetic peptide]”, the “enhancing effect on the memory and learning function and the cognitive function (spontaneous alternation behavior rate)” value was “exhibited the activity of enhancing the memory and learning function and the cognitive function in a concentration-dependent manner”. For “GYGGVSLP (listed as Bos taurus) [whey-derived peptide, tested as synthetic peptide]”, the “enhancing effect on the memory and learning function and the cognitive function (spontaneous alternation behavior rate)” value was “exhibited the activity of enhancing the memory and learning function and the cognitive function in a concentration-dependent manner”. In the case of “KEMPFPKYPVEP (listed as Bos taurus) [casein-derived peptide of 12 amino acids, tested as synthetic peptide]”, the “enhancing effect on the memory and learning function and the cognitive function (spontaneous alternation behavior rate)” value was “enhancement activity on the memory and learning function and the cognitive function”. In the case of “KPTPEGDLEI (listed as Bos taurus) [whey-derived peptide, tested as synthetic peptide]”, the “enhancing effect on the memory and learning function and the cognitive function (spontaneous alternation behavior rate)” value was “exhibited the activity of enhancing the memory and learning function and the cognitive function in a concentration-dependent manner”. “SLPQ (listed as Bos taurus) [casein-derived peptide, tested as synthetic peptide]” was tested, and the “enhancing effect on the memory and learning function and the cognitive function (spontaneous alternation behavior rate)” value was “enhancement activity on the memory and learning function and the cognitive function”. “TWY (listed as Bos taurus) [whey-derived peptide, tested as synthetic peptide]” was tested, and the “enhancing effect on the memory and learning function and the cognitive function (spontaneous alternation behavior rate)” value was “exhibited the activity of enhancing the memory and learning function and the cognitive function in a concentration-dependent manner”. “TWYS (listed as Bos taurus) [whey-derived peptide, tested as synthetic peptide]” was tested, and the “enhancing effect on the memory and learning function and the cognitive function (spontaneous alternation behavior rate)” value was “exhibited the activity of enhancing the memory and learning function and the cognitive function in a concentration-dependent manner”. With “VAGTWYS (listed as Bos taurus) [whey-derived peptide, tested as synthetic peptide]” the “enhancing effect on the memory and learning function and the cognitive function (spontaneous alternation behavior rate)” value was “exhibited the activity of enhancing the memory and learning function and the cognitive function in a concentration-dependent manner”. “VSLPEW (listed as Bos taurus) [whey-derived peptide, tested as synthetic peptide]” was tested, and the “enhancing effect on the memory and learning function and the cognitive function (spontaneous alternation behavior rate)” value was “exhibited the activity of enhancing the memory and learning function and the cognitive function in a concentration-dependent manner”. “YPE (listed as Bos taurus) [casein-derived peptide, tested as synthetic peptide]” was tested, and the “enhancing effect on the memory and learning function and the cognitive function (spontaneous alternation behavior rate)” value was “enhancement activity on the memory and learning function and the cognitive function”. “methionine-tryptophan [MW, reference compound]” was tested, and the “enhancing effect on the memory and learning function and the cognitive function (spontaneous alternation behavior rate)” value was “had no enhancing effect on the memory and learning function and the cognitive function”. With tryptophan-methionine [WM] the “enhancing effect on the memory and learning function and the cognitive function (spontaneous alternation behavior rate)” value was “found to have an enhancing effect on the memory and learning function and the cognition function in a concentration-dependent manner; also recorded: enhancement activity on the memory and learning function and the cognitive function”. For tryptophan-tyrosine [WY], the “enhancing effect on the memory and learning function and the cognitive function (spontaneous alternation behavior rate)” value was “found to have an enhancing effect on the memory and learning function and the cognition function in a concentration-dependent manner; also recorded: enhancement activity on the memory and learning function and the cognitive function”. “tyrosine-tryptophan [YW, reference compound]” was tested, and the “enhancing effect on the memory and learning function and the cognitive function (spontaneous alternation behavior rate)” value was “had no enhancing effect on the memory and learning function and the cognitive function”.

The compounds below were run on TNF-α (assay: Anti-inflammatory activity of isolated microglia (TNF-α in supernatant by ELISA after LPS and IFNγ)). Conditions: 12 h pretreatment with 0, 25, 50 or 100 μM synthetic peptide; then LPS 5 ng/ml and IFNγ 0.5 ng/ml for 12 h; FIG. 11.
Type: cell-based, mouse
Experimental: Brain tissue homogenate is obtained by treating the brain extirpated from a mouse with papain. After stopping the enzymatic reaction, microglia were allowed to interact with a pan-microglia marker, CD11b antibody (produced from Miltenyi Biotec) magnetically-labeled with microbeads and isolated by the MACS method.
Isolated microglia are cultured for 12 hours in a medium supplemented with various peptides. 5 ng/ml lipopolysaccharide (LPS, SIGMA-ALDRICH) and 0.5 ng/ml interferon γ(IFNγ, R & D systems) were then added and culture was continued for 12 hours. TNF-α contained in the culture supernatant was quantified with an ELISA kit (eBiosceince).
Peptides were synthesized based on the obtained amino acid sequences and the anti-inflammatory effect was evaluated. The isolated microglia are pretreated in a medium supplemented with 0, 25, 50, or 100 μM of a synthetic peptide ([…] (SEQ ID NO: 1), […] (SEQ ID NO: 17), AVPYP (SEQ ID NO: 6), SLPQ (SEQ ID NO: 9), YPE (SEQ ID NO: 12), WM (SEQ ID NO: 14), or WY (SEQ In NO: 13)) for 12 hours. As described above, LPS and IFN-γ were added to the medium and culture was continued for 12 hours. INF-α contained in the culture supernatant was measured by ELISA. The result is illustrated in FIG. 11. In FIG. 11, “CM1” indicates the result of […] (SEQ ID NO: 1), “CM2” indicates the result of […] […]
With tryptophan-tyrosine [WY] the “production of TNF-α (anti-inflammatory effect)” value was “particularly high anti-inflammatory effect”.
